Measured values published in ChEMBL document CHEMBL1137488, “Strategies toward improving the brain penetration of macrocyclic tertiary carbinamine BACE-1 inhibitors” (Bioorg Med Chem Lett, 2007).

Test system: not listed separately
Assay: Drug level in mouse brain at 30 mg/kg, ip after 2 hrs
Type: ADME, organism-based
Set-up: dose 30 mg/kg, route intraperitoneal
Conditions: read-out: Drug uptake

concentration at 2 h | SMILES
637 nM | CC1CCc2cccc(c2)C[C@@](C)(N)C(=O)OCc2cc(nc(N(C)S(C)(=O)=O)c2)CC1 (stereo partly drawn)

Test system: P-glycoprotein
Assay: Apparent permeability in human KBV1 cells overexpressing P-glycoprotein
Type: ADME, cell-based, KB-V1
Conditions: not given

SMILES | Papp
CN(c1cc2cc(n1)N(Cc1ccccc1)CCCCc1cccc(c1)C[C@@](C)(N)C(=O)OC2)S(C)(=O)=O | 20 ×10⁻⁶ cm/s
CN(c1cc2cc(n1)CCC(c1ccccc1)CCc1cccc(c1)C[C@@](C)(N)C(=O)OC2)S(C)(=O)=O (stereo partly drawn) | 9 ×10⁻⁶ cm/s
CN(c1cc2cc(n1)NCCCCc1cccc(c1)C[C@@](C)(N)C(=O)OC2)S(C)(=O)=O | 11 ×10⁻⁶ cm/s
CN(c1cc2cc(n1)N(CC1CC1)CCCCc1cccc(c1)C[C@@](C)(N)C(=O)OC2)S(C)(=O)=O | 8 ×10⁻⁶ cm/s

Further lines, results first:

Papp | SMILES
14 ×10⁻⁶ cm/s | CC1CCc2cccc(c2)C[C@@](C)(N)C(=O)OCc2cc(nc(N(C)S(C)(=O)=O)c2)CC1 (stereo partly drawn)
16 ×10⁻⁶ cm/s | CC1CCc2cccc(c2)C[C@@](C)(N)C(=O)OCc2cc(cc(N(C)S(C)(=O)=O)c2)CC1 (stereo partly drawn)
29 ×10⁻⁶ cm/s | CN(c1cc2cc(n1)CCCCCc1cccc(c1)C[C@@](C)(N)C(=O)OC2)S(C)(=O)=O
